Measurements published in patent US20240408169A1 (priority 2023, published 2024).
Read-outs that look alike come from different tables or passages of the source. *1 amine or outer side, *2 acyl side, *3 side chain or, on linkers, in order; H or OH if unused. Where a SMILES comes first, the peptide text is derived from it. Bridges are numbered along the chain shown (N, C = ends). [ ]: non-standard residue; d: D form. The star is where a group is joined. X205 = CC(C)C(=O)N1[C@@H]2COC[C@H]1C=C(c1ccc(F)cc1C[C@@H](C(=O)[*:2])N(C)[*:1])C2; X7 = CC(C)C(=O)N1[C@H]2CC[C@@H]1C=C(c1ccc(F)cc1C[C@@H](C(=O)[*:2])N(C)[*:1])C2; X98 = CN1CC2(C1)OCc1cc(-c3ccc(Cl)cc3C[C@@H](C(=O)[*:2])N(C)[*:1])ccc12; X148 = CN([C@@H](Cc1cc(Cl)ccc1-c1ccc(S(C)(=O)=O)nc1)C(=O)[*:2])[*:1]; X216 = CN1CCC(c2ccc(Cl)cc2C[C@@H](C(=O)[*:2])N(C)[*:1])=CC1=O; NMehhhLys(Me) = CN([C@@H](CCCCCCCN(C)[*:3])C(=O)[*:2])[*:1]; X194 = CN([C@@H](Cc1cc(Cl)ccc1-c1ccnnc1)C(=O)[*:2])[*:1]; NMe(hhhLys) = CN([C@@H](CCCCCCCN[*:3])C(=O)[*:2])[*:1]; X214 = CC(C)Cc1ccc(Cl)cc1C[C@@H](C(=O)[*:2])N(C)[*:1]; cBuCO(3,3-F2-1-CF3) = O=C(C1(C(F)(F)F)CC(F)(F)C1)*; NMePhe(2,5-Cl2) = CN[C@@H](Cc1cc(Cl)ccc1Cl)C(=O)O; Pro(trans-4-F) = O=C(O)[C@@H]1C[C@@H](F)CN1; Gly(cPr) = N[C@H](C(=O)O)C1CC1

Legend:
OVCAR3 cells = assay: MTT proliferation assay, OVCAR3; format: cell-based; details: 5 days compound exposure, 1:3 serial dilution starting at 10 μM;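 further: compound given as an 8- or 10-point series, one day after plating, with exposure covering roughly 3-4 cell doublings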
CyclinE1/CDK2 = molecular target: T1, CyclinE1/CDK2 (Homo sapiens, UniProt P24864); assay: Fluorescence Polarization (FP) competitive binding assay, Cyclin E1/Cdk2;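 further: readings taken after two-hour equilibration at room temperature in HEPES buffer with NaCl, DTT, NP-40 and BSA, IC50 fitted from eight-concentration serial dilution series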
T1 construct: purchased Eurofins, discovery 14-475

CyclinB1/CDK1 = molecular target: T2, CyclinB1/CDK1 (Homo sapiens, UniProt P14635); assay: Fluorescence Polarization (FP) competitive binding assay, Cyclin B1/Cdk1;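 further: fluorescence polarization read after equilibration at room temperature, with IC50 taken from serially diluted dose-response curves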
T2 construct: purchased Eurofins, discovery 14-450

CyclinA2/CDK2 = molecular target: T3, CyclinA2/CDK2 (Homo sapiens, UniProt P20248); assay: Fluorescence Polarization (FP) competitive binding assay, Cyclin A2/Cdk2;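 further: plates equilibrated two hours at room temperature before polarization reading, IC50 fitted from eight-concentration compound titration curves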
T3 construct: purchased CRELUX Protein Services

NCI-H1048 cells = assay: MTT proliferation assay, NCI-H1048; format: cell-based; details: 5 days compound exposure, 1:3 serial dilution starting at 10 μM;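 further: Dose-response in 96-well plates over 8 or 10 concentration points, with exposure spanning 3-4 cell doublings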
[1] = 10 nM Cyclin E1/Cdk2, 2 nM FAM probe, average of 2-3 independent experiments, read-out: Cyclin E FP IC50
[2] = 10 nM Cyclin B1/Cdk1, 2 nM FAM probe; average of 2-3 independent experiments; read-out: Cyclin B FP IC50
[3] = 8 nM Cyclin A2/Cdk2, 2 nM FAM probe, average of 2-3 independent experiments, read-out: Cyclin A FP IC50
[4] = read-out: Cyclin B FP IC50; 10 nM Cyclin B1/Cdk1, 2 nM FAM probe; average of 2-3 independent experiments

Row | SMILES | GI50 (OVCAR3 cells) [nM] | IC50 (CyclinE1/CDK2; [1]) [nM] | IC50 (CyclinB1/CDK1; [2]) [nM] | IC50 (CyclinA2/CDK2; [3]) [nM] | GI50 (NCI-H1048 cells) [nM] | IC50 (CyclinE1/CDK2) [nM] | IC50 (CyclinB1/CDK1; [4]) [nM] | IC50 (CyclinA2/CDK2) [nM] | IC50 (CyclinE1/CDK2; Cyclin E FP IC50, 10 nM Cyclin E1/Cdk2, 2 nM FAM probe, average of 2-3 independent experiments) [nM]
1 | CC(C)C[C@@H]1NC(=O)[C@@H](NC(=O)[C@@H](NC(=O)[C@@H]2C[C@@H](F)CN2C(=O)C2(C(F)(F)F)CC(F)(F)C2)C2CC2)CCCCCCCNC(=O)[C@H](Cc2cc(Cl)ccc2Cl)N(C)C1=O [Example 8] | 30 | 100 | 20 | 30 | 20 | – | – | – | –
2 | CC(C)Cc1ccc(Cl)cc1C[C@H]1C(=O)NCCCCCCC[C@H](N(C)C(=O)[C@@H](NC(=O)[C@@H]2C[C@@H](F)CN2C(=O)C2(C(F)(F)F)CC(F)(F)C2)C2CC2)C(=O)N[C@@H](CC(C)C)C(=O)N1C [Example 64] ({cBuCO(3,3-F2-1-CF3)}-[Pro(trans-4-F)][Gly(cPr)][NMe(hhhLys)]L[X214]; lactam 3-C) | 1240 | – | 20 | 380 | 510 | – | – | – | –
3 | CC(C)C[C@@H]1NC(=O)[C@@H](N(C)C(=O)[C@@H](NC(=O)[C@@H]2C[C@@H](F)CN2C(=O)C2(C(F)(F)F)CC(F)(F)C2)C2CC2)CC=CCCCCN(C)C(=O)[C@H](Cc2cc(Cl)ccc2-c2cnn(C)c2)N(C)C1=O [Example 29] | 70 | 690 | 20 | 30 | 40 | – | – | – | –
4 | CC(C)C[C@@H]1NC(=O)[C@@H](N(C)C(=O)[C@@H](NC(=O)[C@@H]2C[C@@H](F)CN2C(=O)C2(C(F)(F)F)CC(F)(F)C2)C2CC2)CCCCCCCN(C)C(=O)[C@H](Cc2cc(F)ccc2C2=C[C@@H]3COC[C@H](C2)N3C(=O)C(C)C)N(C)C1=O [Example 329] ({cBuCO(3,3-F2-1-CF3)}-[Pro(trans-4-F)][Gly(cPr)][NMehhhLys(Me)]L[X205]; lactam 3-C) | 10 | 250 | 20 | 20 | 10 | – | – | – | –
5 | CC(C)C[C@@H]1NC(=O)[C@@H](N(C)C(=O)[C@@H](NC(=O)[C@@H]2C[C@@H](F)CN2C(=O)C2(C(F)(F)F)CC(F)(F)C2)C2CC2)CCCCCCCN(C)C(=O)[C@H](Cc2cc(Cl)ccc2-c2ccc(S(C)(=O)=O)nc2)N(C)C1=O [Example 201] ({cBuCO(3,3-F2-1-CF3)}-[Pro(trans-4-F)][Gly(cPr)][NMehhhLys(Me)]L[X148]; lactam 3-C) | 60 | – | – | – | 60 | 1950 | 20 | 30 | –
6 | CC(C)C[C@@H]1NC(=O)[C@@H](N(C)C(=O)[C@@H](NC(=O)[C@@H]2C[C@@H](F)CN2C(=O)C2(C(F)(F)F)CC(F)(F)C2)C2CC2)CCCCCCCN(C)C(=O)[C@H](Cc2cc(Cl)ccc2-c2ccnnc2)N(C)C1=O [Example 292] ({cBuCO(3,3-F2-1-CF3)}-[Pro(trans-4-F)][Gly(cPr)][NMehhhLys(Me)]L[X194]; lactam 3-C) | 110 | 2880 | 20 | 60 | 70 | – | – | – | –
7 | CC(C)C[C@@H]1NC(=O)[C@@H](N(C)C(=O)[C@@H](NC(=O)[C@@H]2C[C@@H](F)CN2C(=O)C2(C(F)(F)F)CC(F)(F)C2)C2CC2)CCCCCCCNC(=O)[C@H](Cc2cc(Cl)ccc2Cl)N(C)C1=O [Example 7] ({cBuCO(3,3-F2-1-CF3)}-[Pro(trans-4-F)][Gly(cPr)][NMe(hhhLys)]L[NMePhe(2,5-Cl2)]; lactam 3-C) | 50 | 290 | 20 | – | 20 | – | – | – | –
8 | CC(C)C[C@@H]1NC(=O)[C@@H](N(C)C(=O)[C@@H](NC(=O)[C@@H]2C[C@@H](F)CN2C(=O)C2(C(F)(F)F)CC(F)(F)C2)C2CC2)CCCCCCCNC(=O)[C@H](Cc2cc(F)ccc2C2=C[C@H]3CC[C@@H](C2)N3C(=O)C(C)C)N(C)C1=O [Example 316] ({cBuCO(3,3-F2-1-CF3)}-[Pro(trans-4-F)][Gly(cPr)][NMe(hhhLys)]L[X7]; lactam 3-C) | 10 | 290 | 20 | 20 | 10 | – | – | – | –
9 | CC(C)C[C@@H]1NC(=O)[C@@H](N(C)C(=O)[C@@H](NC(=O)[C@@H]2C[C@@H](F)CN2C(=O)C2(C(F)(F)F)CC(F)(F)C2)C2CC2)CCCCCCCN(C)C(=O)[C@H](Cc2cc(Cl)ccc2C2=CC(=O)N(C)CC2)N(C)C1=O [Example 237] ({cBuCO(3,3-F2-1-CF3)}-[Pro(trans-4-F)][Gly(cPr)][NMehhhLys(Me)]L[X216]; lactam 3-C) | 40 | – | – | – | 10 | – | 20 | – | 1140
10 | CC(C)C[C@@H]1NC(=O)[C@@H](N(C)C(=O)[C@@H](NC(=O)[C@@H]2C[C@@H](F)CN2C(=O)C2(C(F)(F)F)CC(F)(F)C2)C2CC2)CCCCCCCNC(=O)[C@H](Cc2cc(Cl)ccc2-c2ccc3c(c2)COC32CN(C)C2)N(C)C1=O [Example 395] ({cBuCO(3,3-F2-1-CF3)}-[Pro(trans-4-F)][Gly(cPr)][NMe(hhhLys)]L[X98]; lactam 3-C) | 10 | – | – | – | 20 | – | – | – | –
